Like-named read-outs stand apart in the source and are kept apart here.
How the values were obtained:
CLK2 (h) = biological target: T1, CLK2 (h) (Homo sapiens, UniProt P49760); test: CLK2 KinaseProfiler radiometric protein kinase assay; type: biochemical
T1 construct: purchased Merck Millipore (KinaseProfiler service)
Experimental: (§1) In vitro essays were performed by the company Merck Millipore in their KinaseProfiler radiometric protein kinase assay as paid commercial service. The compounds IC50 values for inhibition of individual protein kinases were determined. Dose-response curves were plotted from inhibition data generated, each in duplicate, from 10 point serial dilutions of inhibitory compounds. Concentration of compound was plotted against % kinase activity. To generate IC50 values, the dose-response curves were fitted to a standard sigmoidal curve and IC50 values were derived by standard nonlinear regression analysis.
(§2) All tested compounds were prepared in 100% DMSO to final assay concentrations either 0.5 mM (for the concentration row A, see below) or 0.05 mM (for the concentration row B). This working stock of the compound was added to the assay well as the first component in the reaction, followed by the remaining components as detailed below. The stock solution was added to the individual assay wells in such amounts that the concentrations of the compound were either in the row A (0.001 μM, 0.003 μM, 0.01 μM, 0.03 μM, 0.1 μM, 0.3 μM, 1.0 μM, 3.0 μM, and 10.0 μM) or in the row B (0.0001 μM, 0.0003 μM, 0.001 μM, 0.003 μM, 0.01 μM, 0.03 μM, 0.1 μM, 0.3 μM, and 1.0 μM). There was no pre-incubation step between the compound and the kinase prior to initiation of the reaction.
(§3) The positive control wells contained all components of the reaction, except the compound of interest; however, DMSO (at a final concentration of 2%) was included in these wells to control for solvent effects. The blank wells contained all components of the reaction, with staurosporine as a reference inhibitor replacing the compound of interest. This abolished kinase activity and established the base-line (0% kinase activity remaining).
CLK2 (h) was diluted in the buffer (20 mM MOPS (3-(N-morpholino)propanesulfonic acid), 1 mM EDTA (ethylendiaminotetraacetic acid), 0.01% Brij-35 (detergent), 5% Glycerol, 0.1% β-mercaptoethanol, 1 mg/mL BSAs) to the concentration of 1.01 mg/mL prior to addition to the reaction mix.
The above stock solution of CLK2(h) was added to a mixture containing 8 mM MOPS pH 7.0, 0.2 mM EDTA, and 20 μM […](p) EDEEE in such amount that the resulting concentration of CLK2(h) was 2.1 nM. This mixture was added to the stock solution of the tested compound. The reaction was initiated by the addition of the MgATP mix in such amount that the resulting concentration of Mg acetate in the reaction mixture was 10 mM and [γ-^33P-ATP] (specific activity approx. 500 cpm/pmol) was 15 μM. After incubation for 40 minutes at room temperature, the reaction was stopped by the addition of 3% phosphoric acid solution. 10 μL of the reaction was then spotted onto a P30 filtermat and washed three times for 5 minutes in 75 mM phosphoric acid and once in methanol prior to drying and scintillation counting.

HIPK2(h) = biological target: T2, HIPK2(h) (Homo sapiens, UniProt Q9H2X6); test: HIPK2 KinaseProfiler radiometric protein kinase assay; type: biochemical; settings: 10 μM ATP, 40 minutes at room temperature
T2 construct: purchased Merck Millipore (KinaseProfiler service)
Experimental: as §1, §2, §3
HIPK2(h) was diluted in the buffer (20 mM MOPS, 1 mM EDTA, 0.01% Brij-35, 5% Glycerol, 0.1% β-mercaptoethanol, 1 mg/mL BSAs) to the concentration of 1.01 mg/mL prior to addition to the reaction mix.
The above stock solution of HIPK2(h) was added to a mixture containing 8 mM MOPS pH 7.0, 0.2 mM EDTA, and 0.33 mg/mL myelin basic protein in such amount that the resulting concentration of HIPK2(h) was 1.4 nM. This mixture was added to the stock solution of the tested compound. The reaction was initiated by the addition of the MgATP mix in such amount that the resulting concentration of Mg acetate in the reaction mixture was 10 mM and [γ-^33P-ATP] (specific activity approx. 500 cpm/pmol) was 10 μM. After incubation for 40 minutes at room temperature, the reaction was stopped by the addition of 3% phosphoric acid solution. 10 μL of the reaction was then spotted onto a P30 filtermat and washed three times for 5 minutes in 75 mM phosphoric acid and once in methanol prior to drying and scintillation counting.

T2 sequence (Q9H2X6 whole entry): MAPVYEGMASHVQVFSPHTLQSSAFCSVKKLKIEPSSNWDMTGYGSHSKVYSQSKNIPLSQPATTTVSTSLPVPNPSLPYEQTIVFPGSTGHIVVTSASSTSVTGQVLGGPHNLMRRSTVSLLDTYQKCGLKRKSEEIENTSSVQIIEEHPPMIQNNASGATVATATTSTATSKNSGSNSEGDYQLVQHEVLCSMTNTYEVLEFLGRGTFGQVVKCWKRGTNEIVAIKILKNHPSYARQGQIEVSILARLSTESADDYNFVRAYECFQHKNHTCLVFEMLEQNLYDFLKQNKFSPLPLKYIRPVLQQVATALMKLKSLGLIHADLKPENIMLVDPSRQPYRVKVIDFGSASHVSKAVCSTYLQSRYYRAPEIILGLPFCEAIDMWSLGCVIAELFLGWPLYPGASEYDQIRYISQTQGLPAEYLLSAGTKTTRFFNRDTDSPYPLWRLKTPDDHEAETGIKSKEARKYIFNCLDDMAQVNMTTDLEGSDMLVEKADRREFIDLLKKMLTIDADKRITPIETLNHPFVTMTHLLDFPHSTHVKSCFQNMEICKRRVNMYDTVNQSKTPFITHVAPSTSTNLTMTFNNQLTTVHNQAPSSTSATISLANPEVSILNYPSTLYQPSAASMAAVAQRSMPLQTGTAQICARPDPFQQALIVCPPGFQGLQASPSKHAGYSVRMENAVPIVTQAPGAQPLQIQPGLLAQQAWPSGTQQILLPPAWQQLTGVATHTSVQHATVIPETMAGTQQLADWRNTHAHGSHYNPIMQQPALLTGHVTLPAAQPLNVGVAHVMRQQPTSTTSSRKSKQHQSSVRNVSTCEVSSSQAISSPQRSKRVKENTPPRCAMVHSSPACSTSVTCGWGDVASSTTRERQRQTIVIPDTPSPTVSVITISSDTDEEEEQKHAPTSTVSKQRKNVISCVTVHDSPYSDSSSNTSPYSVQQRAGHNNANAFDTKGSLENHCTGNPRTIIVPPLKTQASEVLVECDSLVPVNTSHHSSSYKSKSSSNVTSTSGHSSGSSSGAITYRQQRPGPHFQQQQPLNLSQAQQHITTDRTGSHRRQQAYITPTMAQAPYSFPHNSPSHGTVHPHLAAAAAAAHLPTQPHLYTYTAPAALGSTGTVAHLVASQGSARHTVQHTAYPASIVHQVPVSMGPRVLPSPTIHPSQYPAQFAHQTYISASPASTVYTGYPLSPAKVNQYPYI
T1 sequence (P49760 whole entry): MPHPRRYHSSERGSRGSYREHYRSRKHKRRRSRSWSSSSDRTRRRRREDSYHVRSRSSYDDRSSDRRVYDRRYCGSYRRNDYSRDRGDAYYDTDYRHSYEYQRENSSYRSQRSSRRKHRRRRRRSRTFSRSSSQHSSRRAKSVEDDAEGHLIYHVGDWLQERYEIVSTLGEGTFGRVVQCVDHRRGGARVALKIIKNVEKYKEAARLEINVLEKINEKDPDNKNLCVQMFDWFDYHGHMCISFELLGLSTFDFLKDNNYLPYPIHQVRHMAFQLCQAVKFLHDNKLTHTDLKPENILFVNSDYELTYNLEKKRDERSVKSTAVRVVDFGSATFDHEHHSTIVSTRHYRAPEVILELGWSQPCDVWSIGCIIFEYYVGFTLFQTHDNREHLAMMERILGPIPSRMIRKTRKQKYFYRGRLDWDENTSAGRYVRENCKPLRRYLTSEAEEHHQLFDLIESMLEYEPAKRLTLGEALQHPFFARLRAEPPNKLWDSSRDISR

IC50 (CLK2 (h); radiometric, 15 μM ATP, 40 minutes at room temperature, read-out: CLK2 IC50) [nM] | IC50 (HIPK2(h)) [nM] | IC50 (CLK2 (h)) [nM] | Compound
< 1000 | < 1000 | – | Cn1cc(-c2ccc3occ(-c4ccccc4)c3n2)cn1 [Preparative Example 6A]
– | < 100 | < 100 | c1ccc(-c2coc3ccc(-c4cn[nH]c4)nc23)cc1 [Preparative Example 9]
